Read-outs that look alike come from different tables or passages of the source.
Tests used:
[1] = test system: joint pain induced by intra-articular monoiodoacetic acid; details: 0.3 mg/kg p.o.; cited from earlier work
human CB2 [2] = molecular target: T1, human CB2 (Homo sapiens, UniProt P34972); assay: On-cell western for receptor internalization, HEK hCB2; format: cell-based; set-up: expressed in transfected cells
mouse CB2 receptors = molecular target: T2, mouse CB2 receptors (Mus musculus, UniProt P47936); assay: Phosphorylated ERK1/2 detection, HEK mCB2; format: cell-based; details: for Emax: read-out: pERK1/2 Emax
T2 construct: expressed in transfected cells

[3] = test system: paclitaxel-induced mechanical allodynia; assay: Paclitaxel-induced mechanical allodynia (electronic von Frey); format: in vivo, mouse; details: for mechanical allodynia, chronic phase 1 treatment: 3 mg/kg per day i.p.×12 days
Procedure: (§1) In all studies, the experimenter was blinded to the treatment condition, and mice were randomly assigned to experimental conditions. Paclitaxel (4 mg/kg i.p.) was administered four times on alternate days (cumulative dose, 16 mg/kg i.p.) to induce neuropathic pain as described previously by our group (Deng et al., 2015). Control mice received an equal volume of cremophor-vehicle. Development of paclitaxel-induced allodynia was assessed on day 0, 4, 7, 11, and 14.
(§2) Effects of pharmacologic manipulations were assessed at 30 minutes after drug administration during the maintenance phase of paclitaxel-induced neuropathy (i.e., beginning day 18-20 after initial paclitaxel injection).
(§3) In experiments 2 and 3, pharmacologic manipulations were performed once daily for 12 consecutive days in each of the two phases of chronic treatment. Four days separated phase 1 and phase 2 chronic dosing in all studies comprising two phases of chronic dosing. Experiments 2 and 3 were performed concurrently using overlapping cohorts that were tested with a single vehicle (phase 1), vehicle (phase 2) group.
(§4) We then assessed the antiallodynic efficacy of chronic systemic administration of vehicle or morphine (10 mg/kg per day i.p.×12 days) administered during phase 2 in the same animals. Responsiveness to mechanical and cold stimulation was evaluated on treatment days 1, 4, 8, and 12 during phase 1 and on treatment days 16, 19, 23, and 27 during phase 2 (i.e., phase 2 started on day 16).
(§5) In experiment 4, we evaluated the impact of coadministration of morphine (10 mg/kg i.p.×12 days) with a submaximal dose of LY 2828360 (0.1 mg/kg per day i.p.×12 days) in WT and CB2 KO mice.
Paw withdrawal thresholds (grams) to mechanical stimulation were measured in duplicate for each paw using an electronic von Frey anesthesiometer supplied with a 90-g probe (model Alemo 2390-5; IITC, Woodland Hills, Calif.) as described previously. Mice were placed on an elevated metal mesh table and allowed to habituate under individual, inverted plastic cages to the testing platform for at least 20 minutes until exploratory behavior had ceased. Alter the habituation period, a force was applied to the midplantar region of the hind paw with a semiflexible tip connected to the anesthesiometer. Mechanical stimulation was terminated when the animal withdrew its paw, and the value of the applied force was recorded in grams. Mechanical paw withdrawal thresholds were obtained in duplicate for each paw and are reported as the mean of duplicate determinations from each animal, averaged across animals, for each group.

[4] = test system: paclitaxel-induced cold allodynia; assay: Paclitaxel-induced cold allodynia (acetone); format: in vivo, mouse; details: for cold allodynia, chronic phase 1 treatment: 3 mg/kg per day i.p.×12 days
Procedure: as §1, §2, §3, §4, §5
Response time (seconds) spent attending to (i.e., elevating, licking, biting, or shaking) the paw stimulated with acetone (Sigma-Aldrich) was measured in triplicate for each paw to assess cold allodynia as previously published. An acetone bubble (approximately 5 to 6 p.1) formed at the end of a blunt 1-ml syringe hub was gently applied to the plantar surface of the hind paw. Care was taken not to apply mechanical stimulation to the hind paw with the syringe itself. The total time the animal spent attending to the acetone-stimulated paw (i.e., elevation, shaking, or licking) was recorded over 1 minute after acetone application. Acetone was applied three times to each paw with a 3-minute interval between applications. Values for each animal were calculated as the mean of six determinations of acetone responsiveness derived from each mouse.

human CB2 [5] = molecular target: T1, human CB2; assay: Forskolin-stimulated cAMP accumulation (cyclase), HEK hCB2; format: cell-based; set-up: expressed in transfected cells; time of inhibition of forskolin-stimulated cAMP accumulation: dose or concentration left out as unconfirmed
CB1 = CB1 (Homo sapiens, UniProt P21554); details: at 100 μM; cited from earlier work
human CB2 [6] = molecular target: T1, human CB2; details: at 20 nM; cited from earlier work
[7] = test system: naloxone-precipitated opioid withdrawal; assay: Naloxone-precipitated opioid withdrawal in paclitaxel-treated mice; format: in vivo, mouse
Procedure: Alter the last injection of morphine (on day 28 for two-phase treatments, on day 13 for coadministration treatment), we challenged WT or CB2KO mice from experiments 2, 3, and 4 with vehicle, followed 30 minutes later by naloxone (5 mg/kg i.p.) to precipitate opioid receptor-mediated withdrawal. Mice were video-recorded for subsequent scoring of withdrawal-like behaviors for a 30-minute interval after challenge with vehicle or naloxone.
Mice were video-taped, and the number of jumps was scored in 5-minute intervals for a total observation period of 30 minutes after challenge with either saline or naloxone (5 mg/kg i.p.).

[8] = in vivo; cited from earlier work
[9] = CB2KO mice, 3 mg/kg per day i.p.×12 days after phase 1 morphine
[10] = CB2KO mice, LY2828360 0.1 mg/kg with morphine 10 mg/kg per day×12 days
[11] = CB2KO mice, LY2828360 phase 1, morphine phase 2
[12] = WT mice, 3 mg/kg per day i.p.×12 days after phase 1 morphine
[13] = WT mice, LY2828360 0.1 mg/kg per day i.p.×12 days with morphine 10 mg/kg per day×12 days
[14] = WT mice, LY2828360 0.1 mg/kg with morphine 10 mg/kg per day×12 days
[15] = WT mice, LY2828360 3 mg/kg per day×12 days phase 1, morphine 10 mg/kg×12 days phase 2
[16] = WT mice, acute systemic (i.p.), dose-dependent
[17] = WT mice, doses lower than 0.3 mg/kg i.p.
[18] = WT mice, phase 1, 3 mg/kg per day i.p.×12 days
[19] = paclitaxel-treated WT mice, naloxone 5 mg/kg i.p.

T1 sequence (P34972 whole entry): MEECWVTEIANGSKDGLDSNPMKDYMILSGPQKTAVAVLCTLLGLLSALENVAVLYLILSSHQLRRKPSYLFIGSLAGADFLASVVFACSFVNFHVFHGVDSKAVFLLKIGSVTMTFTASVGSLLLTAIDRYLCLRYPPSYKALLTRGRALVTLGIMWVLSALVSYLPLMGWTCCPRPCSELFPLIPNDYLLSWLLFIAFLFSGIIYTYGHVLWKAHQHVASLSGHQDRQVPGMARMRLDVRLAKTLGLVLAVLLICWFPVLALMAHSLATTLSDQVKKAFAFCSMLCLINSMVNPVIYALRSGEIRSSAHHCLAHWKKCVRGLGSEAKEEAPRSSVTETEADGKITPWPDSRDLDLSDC
T2 sequence (P47936 whole entry): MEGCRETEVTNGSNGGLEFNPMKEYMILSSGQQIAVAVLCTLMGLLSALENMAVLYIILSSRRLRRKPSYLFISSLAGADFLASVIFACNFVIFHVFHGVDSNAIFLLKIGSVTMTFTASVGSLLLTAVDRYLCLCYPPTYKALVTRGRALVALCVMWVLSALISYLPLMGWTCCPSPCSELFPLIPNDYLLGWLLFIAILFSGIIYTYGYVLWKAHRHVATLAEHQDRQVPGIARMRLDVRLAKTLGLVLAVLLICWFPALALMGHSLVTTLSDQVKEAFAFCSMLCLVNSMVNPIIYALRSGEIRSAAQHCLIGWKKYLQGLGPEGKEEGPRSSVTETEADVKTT
CB1, sequence (P21554 whole entry, species assumed): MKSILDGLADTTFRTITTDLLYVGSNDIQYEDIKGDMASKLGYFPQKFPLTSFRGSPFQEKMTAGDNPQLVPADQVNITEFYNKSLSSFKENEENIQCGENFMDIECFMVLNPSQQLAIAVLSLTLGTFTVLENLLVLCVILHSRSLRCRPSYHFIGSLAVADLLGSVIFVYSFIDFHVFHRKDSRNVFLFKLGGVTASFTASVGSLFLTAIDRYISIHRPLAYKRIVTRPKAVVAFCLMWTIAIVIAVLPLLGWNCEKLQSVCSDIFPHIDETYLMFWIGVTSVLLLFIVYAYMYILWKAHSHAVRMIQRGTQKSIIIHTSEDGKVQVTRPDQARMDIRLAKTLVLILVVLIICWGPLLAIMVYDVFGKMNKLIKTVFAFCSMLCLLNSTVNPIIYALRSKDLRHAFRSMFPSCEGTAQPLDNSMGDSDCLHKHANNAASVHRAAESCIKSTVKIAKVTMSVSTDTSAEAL

Cc1nc(N2CCN(C)CC2)c2nc(-c3ccccc3Cl)n(C3CCOCC3)c2n1 [LY2828360, 8-(2-chlorophenyl)-2-methyl-6-(4-methylpiperazin-1-yl)-9-(tetrahydro-2H-pyran-4-yl)-9H-purine]
efficacy compared with diclofenac [1]: equivalent efficacy | reversal of pain, incapacitance testing [1]: dose-related reversal of pain | receptor internalization (human CB2 [2]; HEK hCB2): failed to internalize the receptor | Emax (human CB2 [2]; human CB2, 90 mins incubation, read-out: Internalization Emax): 10.2% | ERK1/2 phosphorylation time course (mouse CB2 receptors; mCB2, 1 μM): had no effect at 5- and 10-minute time points but increased ERK1/2 phosphorylation at 20, 30, and 40 minutes | ERK1/2 phosphorylation after PTX treatment (mouse CB2 receptors; mCB2, 1 μM, PTX): abolished the 20-minute phosphorylation of ERK1/2 | ERK1/2 phosphorylation, concentration response (mouse CB2 receptors; mCB2, 5 minutes): failed to affect pERK1/2 levels | ERK1/2 phosphorylation, concentration response (mouse CB2 receptors; mCB2, 20 minutes): increased ERK1/2 phosphorylation | effect on ERK1/2 phosphorylation in presence of SR144528 (mouse CB2 receptors; mCB2, 20 minutes, SR144528 1 μM): blocked | Emax (mouse CB2 receptors; mouse CB2, 05 mins incubation): 4.1% | EC50 (mouse CB2 receptors; mouse CB2, 20 mins incubation, read-out: pERK1/2 EC50): 339 nM | Emax (mouse CB2 receptors; mouse CB2, 20 mins incubation): 43.6% | time for responsiveness to mechanical stimulation to return to baseline ([3]; 3 mg/kg i.p. acute): 1 days | mechanical allodynia, chronic phase 1 treatment ([3]; CB2KO mice): failed to suppress | mechanical responsiveness, phase 2 treatment of morphine-tolerant mice [3, 9]: did not alter responsiveness to mechanical or cold stimulation | mechanical allodynia, coadministration with morphine [3, 10]: sustained antiallodynic efficacy was absent | development of tolerance to antiallodynic effect of phase 2 morphine, mechanical [3, 11]: did not block the development of morphine tolerance | paclitaxel-induced mechanical allodynia, high dose ([3]; WT mice, 3 mg/kg i.p. acute): fully reversed paclitaxel-induced allodynia and normalized responses to pre-paclitaxel baseline levels | mechanical allodynia, chronic phase 1 treatment ([3]; WT mice): markedly suppressed paclitaxel-induced mechanical and cold allodynia throughout the observation interval | mechanical allodynia, phase 2 treatment of morphine-tolerant mice [3, 12]: fully reversed paclitaxel-induced allodynia and normalized responsiveness to pre-paclitaxel baseline levels | tolerance to phase 2 treatment, mechanical [3, 12]: tolerance did not develop | mechanical allodynia, coadministration with morphine [3, 13]: fully reversed paclitaxel-induced mechanical allodynia and normalized responses to pre-paclitaxel baseline levels throughout the observation period | development of morphine tolerance under coadministration, mechanical [3, 14]: morphine tolerance failed to develop | development of tolerance to antiallodynic effect of phase 2 morphine, mechanical [3, 15]: prevented the development of morphine tolerance | paclitaxel-induced mechanical allodynia, acute dose response [3, 16]: suppressed | mechanical allodynia at low doses vs cremophor-vehicle controls [3, 17]: neuropathic pain was prominent | stability of antiallodynic efficacy (tolerance), mechanical [3, 18]: stable throughout phase 1 treatment | time for responsiveness to cold stimulation to return to baseline ([4]; 3 mg/kg i.p. acute): 3 days | cold allodynia, chronic phase 1 treatment ([4]; CB2KO mice): failed to suppress | cold responsiveness, phase 2 treatment of morphine-tolerant mice [4, 9]: did not alter responsiveness to mechanical or cold stimulation | cold allodynia, coadministration with morphine [4, 10]: sustained antiallodynic efficacy was absent | development of tolerance to antiallodynic effect of phase 2 morphine, cold [4, 11]: did not block the development of morphine tolerance | paclitaxel-induced cold allodynia, high dose ([4]; WT mice, 3 mg/kg i.p. acute): fully reversed paclitaxel-induced allodynia and normalized responses to pre-paclitaxel baseline levels | cold allodynia, chronic phase 1 treatment ([4]; WT mice): markedly suppressed paclitaxel-induced mechanical and cold allodynia throughout the observation interval | cold allodynia, phase 2 treatment of morphine-tolerant mice [4, 12]: fully reversed paclitaxel-induced allodynia and normalized responsiveness to pre-paclitaxel baseline levels | tolerance to phase 2 treatment, cold [4, 12]: tolerance did not develop | cold allodynia, coadministration with morphine [4, 13]: normalized cold responsiveness on days 1 and 4 | development of morphine tolerance under coadministration, cold [4, 14]: morphine tolerance failed to develop | development of tolerance to antiallodynic effect of phase 2 morphine, cold [4, 15]: prevented the development of morphine tolerance | paclitaxel-induced cold allodynia, acute dose response [4, 16]: suppressed | cold allodynia at low doses vs cremophor-vehicle controls [4, 17]: neuropathic pain was prominent | stability of antiallodynic efficacy (tolerance), cold [4, 18]: stable throughout phase 1 treatment | inhibition of forskolin-stimulated cAMP accumulation (human CB2 [5]; hCB2, 5 minutes of treatment): had no effect | inhibition of forskolin-stimulated cAMP accumulation (human CB2 [5]; hCB2, 35 minutes): potent and efficacious agonist | inhibition of forskolin-stimulated cAMP accumulation in presence of SR144528 (human CB2 [5]; hCB2, 35 minutes): completely blocked | time of inhibition of forskolin-stimulated cAMP accumulation (human CB2 [5]; hCB2, time course): 35 min | inhibition of cAMP accumulation after PTX pretreatment (human CB2 [5]; hCB2, time course, PTX): abolished this effect | Emax (human CB2 [5]; human CB2, 35 mins incubation, read-out: Cyclase Emax): 42.8% | maximal stimulation of CB1 (CB1): 15% | maximal stimulation of CB2 (human CB2 [6]): approximately 87% | naloxone-precipitated jumps, WT compared with CB2KO mice ([7]; coadministration of LY2828360 with morphine, P=0.055): trended to produce a lower number of naloxone-precipitated jumps | number of jumps, LY (1)-Mor (2) vs Veh (1)-Mor (2) ([7]; paclitaxel-treated CB2KO mice): did not differ | number of jumps, LY (1)-Mor (2) vs Veh (1)-Veh (2) ([7]; paclitaxel-treated CB2KO mice): trended higher | number of jumps, LY (1)-Mor (2) vs Veh (1)-Mor (2) [7, 19]: did not differ | number of naloxone-precipitated jumps, LY (1)-Mor (2) vs Veh (1)-Veh (2) [7, 19]: did not differ | central nervous system (CNS) penetration [8]: good

Source: patent US20190314379A1, “METHODS OF USING CANNABINOID CB2 RECEPTOR AGONIST COMPOSITIONS TO SUPPRESS AND PREVENT OPIOID TOLERANCE AND WITHDRAWAL IN A SUBJECT” (Indiana University Research and Technology Corporation, priority 2018, published 2019)
